From article PMC7413254 (Nature Communications, 2020)
Like-named read-outs stand apart in the source and are kept apart here.

Key:
PfCRT^Dd2 [1] = target: T1, PfCRT^Dd2 (Plasmodium falciparum, UniProt Q9N623, A220S/I356T/K76T/M74I/N326S/N75E/Q271E/R371I); test: [3H]CQ uptake into Xenopus oocytes, cis-inhibition by unlabelled solute; format: cell-based
How it was run: (§1)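 Assay buffer ND96 (10 mM MES, 10 mM Tris-base) held at pH 5.5 to mimic vacuole lumen; uptake measured inward from this acidic medium over 1.5 h at 27.5 °C.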

PfCRT^Ecu1110 [2] = target: T2, PfCRT^Ecu1110 (Plasmodium falciparum, UniProt Q9N623, A220S/I356L/K76T/N326D); test: as above; format: cell-based
T2 sequence (Q9N623 whole entry A220S/I356L/K76T/N326D): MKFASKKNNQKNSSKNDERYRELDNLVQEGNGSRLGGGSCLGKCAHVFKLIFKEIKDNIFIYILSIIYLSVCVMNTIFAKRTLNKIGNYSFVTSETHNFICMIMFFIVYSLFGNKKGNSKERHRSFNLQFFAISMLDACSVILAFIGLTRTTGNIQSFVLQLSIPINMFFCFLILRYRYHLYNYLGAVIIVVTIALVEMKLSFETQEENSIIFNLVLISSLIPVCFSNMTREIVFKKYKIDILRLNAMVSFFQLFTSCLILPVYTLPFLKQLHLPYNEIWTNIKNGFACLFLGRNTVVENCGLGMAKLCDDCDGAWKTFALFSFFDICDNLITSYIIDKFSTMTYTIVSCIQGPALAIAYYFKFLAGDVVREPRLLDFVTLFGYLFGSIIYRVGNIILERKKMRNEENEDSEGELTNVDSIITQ
How it was run: as §1

PfCRT [3] = test: Potential co-substrates tested for influx of VF-6 via PfCRT into the oocyte; format: cell-based, Plasmodium falciparum; parameters: key: X: Compounds that have been tested as potential co-substrates but are not required for influx of VF-6 via PfCRT into the oocyte
non-expressing oocytes [4] = format: cell-based, Xenopus laevis; conditions: total [3H]CQ transport; for Uptake of [3H]CQ (% non-expressing oocyte control), trans-stimulation: non-expressing oocytes, normalised to the oocyte type control; for Uptake of [3H]CQ (% PfCRTDd2 control), trans-stimulation, non-expressing oocytes: mean ± SEM, SEM
How it was run: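 Oocytes (ten per treatment, ≥4 independent frogs/days) were preloaded by injecting VF-6 in 25 nL ND96 at pH 5.0, 5.5, 6.0 or 7.0, or Na^+-free choline buffer, then uptake run 1.5 h, 27.5 °C, ND96 pH 5.5 by default. Internal concentrations assumed ~400 nL oocyte volume.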

non-expressing oocytes [5] = test: cells; format: cell-based, Xenopus laevis; conditions: Xenopus laevis, total [3H]CQ transport; for inhibition at 500 µM: [test solute] = 0.5 mM; for inhibition at 1000 µM: [test solute] = 1 mM; for inhibition at 2000 µM: [test solute] = 2 mM
How it was run: as §1

PfCRT^Dd2 [6] = target: T1, PfCRT^Dd2; test: cell-based; format: cell-based; conditions: […]; for activity at 45000 µM: [test solute]i = 45 mM (30 mM for some solutes due to solubility)
How it was run: (§2)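 Transport measured in Xenopus oocytes expressing the transporters, 1.5 h at 27.5 °C in ND96 pH 5.5 unless noted. For trans-stimulation, VF-6 injected in 25 nL ND96 at pH 5.0–7.0 or Na^+-free (choline) buffer; intracellular levels based on ~400 nL oocyte volume. Ten oocytes per treatment, ≥4 experiments.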

PfCRT^Ecu1110 [7] = target: T2, PfCRT^Ecu1110; test: cell-based; format: cell-based; conditions: […]
How it was run: as §2

PfCRT^3D7 [8] = target: T3, PfCRT^3D7 (Plasmodium falciparum, UniProt Q8IBZ9); test: cell-based; format: cell-based
T3 sequence (Q8IBZ9 59-398): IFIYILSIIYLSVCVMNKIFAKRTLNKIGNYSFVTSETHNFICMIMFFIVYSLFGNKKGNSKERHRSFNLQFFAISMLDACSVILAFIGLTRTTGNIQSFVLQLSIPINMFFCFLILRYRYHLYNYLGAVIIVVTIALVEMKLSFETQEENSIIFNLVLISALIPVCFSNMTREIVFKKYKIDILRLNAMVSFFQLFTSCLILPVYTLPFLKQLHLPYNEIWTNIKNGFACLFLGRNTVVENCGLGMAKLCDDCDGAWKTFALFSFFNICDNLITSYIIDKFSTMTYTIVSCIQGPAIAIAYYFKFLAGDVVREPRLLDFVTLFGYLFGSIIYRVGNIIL
How it was run: as §2

PfNT1 = target: T4, PfNT1 (Plasmodium falciparum, UniProt Q8IDM6); test: cell-based; format: cell-based; conditions: for activity at 5000 µM: total [3H]CQ transport
T4 construct: expressed in transfected cells; host or cells: Xenopus laevis oocytes (stage V-VI), cRNA-injected
T4 sequence (Q8IDM6 whole entry): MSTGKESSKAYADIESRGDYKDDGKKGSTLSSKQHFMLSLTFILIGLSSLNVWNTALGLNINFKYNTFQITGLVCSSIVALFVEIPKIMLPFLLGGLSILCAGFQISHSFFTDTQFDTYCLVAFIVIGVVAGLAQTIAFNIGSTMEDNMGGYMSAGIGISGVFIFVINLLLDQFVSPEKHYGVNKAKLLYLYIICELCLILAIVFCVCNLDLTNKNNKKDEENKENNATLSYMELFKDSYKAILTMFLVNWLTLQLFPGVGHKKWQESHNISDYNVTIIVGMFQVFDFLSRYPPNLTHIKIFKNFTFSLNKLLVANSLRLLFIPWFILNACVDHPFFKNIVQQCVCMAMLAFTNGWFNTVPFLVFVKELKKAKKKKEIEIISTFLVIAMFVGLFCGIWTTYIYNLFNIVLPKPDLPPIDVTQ
How it was run: as §2

PfCRT^3D7 [9] = target: T3, PfCRT^3D7; test: cell-based; format: cell-based; conditions: total [3H]CQ transport; for inhibition at 500 µM: [test solute] = 0.5 mM; for inhibition at 1000 µM: [test solute] = 1 mM; for inhibition at 2000 µM: [test solute] = 2 mM
How it was run: as §1

PfCRT [10] = test: Test of solutes as potential co-substrates for influx of VF-6 via PfCRT into the oocyte; format: cell-based, Plasmodium falciparum; parameters: key: X: Compounds that have been tested as potential co-substrates but are not required for influx of VF-6 via PfCRT into the oocyte; conditions: X = tested
[11] = read-out: PfCRT-mediated [3H]CQ transport, cis-inhibition (% PfCRTDd2 control)
[12] = read-out: Uptake of [3H]CQ (% PfCRTDd2 control), cis-inhibition, PfCRTDd2, SEM
[13] = read-out: PfCRT-mediated [3H]CQ transport, cis-inhibition (% PfCRTEcu1110 control)
[14] = read-out: Uptake of [3H]CQ (% PfCRTDd2 control), cis-inhibition, PfCRTEcu1110, SEM
[15] = read-out: Uptake of [3H]CQ (% PfCRTEcu1110 control), cis-inhibition
[16] = read-out: [3H]CQ transport (% PfCRTEcu1110 control), cis-inhibition, PfCRTEcu1110, SEM
[17] = Oocyte, mean ± SEM, SEM, read-out: Uptake of [3H]CQ (% PfCRTDd2 control), cis-inhibition, non-expressing oocytes
[18] = non-expressing oocytes, normalised to the oocyte type control, read-out: Uptake of [3H]CQ (% non-expressing oocyte control), cis-inhibition
[19] = PfCRT3D7 oocytes, normalised to the oocyte type control, read-out: Uptake of [3H]CQ (% PfCRT3D7 control), cis-inhibition
[20] = mean ± SEM, SEM, read-out: Uptake of [3H]CQ (% PfCRTDd2 control), cis-inhibition, PfCRT3D7

T1 sequence (Q9N623 whole entry A220S/I356T/K76T/M74I/N326S/N75E/Q271E/R371I): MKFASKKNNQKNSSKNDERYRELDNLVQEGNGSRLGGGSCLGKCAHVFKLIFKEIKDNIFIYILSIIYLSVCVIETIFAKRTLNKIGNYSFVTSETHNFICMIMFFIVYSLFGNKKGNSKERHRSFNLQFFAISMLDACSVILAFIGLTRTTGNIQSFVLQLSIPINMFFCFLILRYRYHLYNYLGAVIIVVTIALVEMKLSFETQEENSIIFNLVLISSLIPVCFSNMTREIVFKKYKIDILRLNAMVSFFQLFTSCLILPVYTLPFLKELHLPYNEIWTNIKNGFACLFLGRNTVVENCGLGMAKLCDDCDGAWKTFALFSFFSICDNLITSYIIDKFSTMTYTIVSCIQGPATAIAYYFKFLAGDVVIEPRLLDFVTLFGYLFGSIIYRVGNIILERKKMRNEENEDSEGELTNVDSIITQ

N[C@@H](CO)C(=O)O [L-serine]
inhibition at 500 µM (PfCRT^Dd2 [1]; [11]): 99 ± 4.6%
inhibition at 2000 µM (PfCRT^Dd2 [1]; [11]): 94 ± 2.1%
inhibition at 500 µM (PfCRT^Dd2 [1]; [12]): 101 ± 3.3%
inhibition at 1000 µM (PfCRT^Dd2 [1]; [12]): 98 ± 2.6%
inhibition at 2000 µM (PfCRT^Dd2 [1]; [12]): 96 ± 3.5%
inhibition at 500 µM (PfCRT^Ecu1110 [2]; [13]): 97 ± 1.5%
inhibition at 1000 µM (PfCRT^Ecu1110 [2]; [13]): 97 ± 3.5%
inhibition at 2000 µM (PfCRT^Ecu1110 [2]; [13]): 98 ± 3.2%
inhibition at 500 µM (PfCRT^Ecu1110 [2]; [14]): 32 ± 1.9%
inhibition at 1000 µM (PfCRT^Ecu1110 [2]; [14]): 32 ± 2.1%
inhibition at 2000 µM (PfCRT^Ecu1110 [2]; [14]): 33 ± 1.8%
inhibition at 500 µM (PfCRT^Ecu1110 [2]; [15]): 101 ± 2.2%
inhibition at 1000 µM (PfCRT^Ecu1110 [2]; [15]): 101 ± 1.7%
inhibition at 2000 µM (PfCRT^Ecu1110 [2]; [15]): 100 ± 2.2%
inhibition at 500 µM (PfCRT^Ecu1110 [2]; [16]): 29 ± 1.7%
inhibition at 1000 µM (PfCRT^Ecu1110 [2]; [16]): 29 ± 1.1%
inhibition at 2000 µM (PfCRT^Ecu1110 [2]; [16]): 30 ± 0.6%
Tested as potential co-substrate but not required for influx of VF-6 via PfCRT into the oocyte (PfCRT [3]): X
Uptake of [3H]CQ (% non-expressing oocyte control), trans-stimulation (non-expressing oocytes [4]; [test solute]i = 5 mM): 100 ± 3.1 % non-expressing oocyte control
Uptake of [3H]CQ (% non-expressing oocyte control), trans-stimulation (non-expressing oocytes [4]; [test solute]i = 45 mM (30 mM for some solutes due to solubility)): 101 ± 2.8 % non-expressing oocyte control
Uptake of [3H]CQ (% PfCRTDd2 control), trans-stimulation, non-expressing oocytes (non-expressing oocytes [4]; [test solute]i = 5 mM (intracellular)): 2.8 ± 0.03 % PfCRTDd2 control
Uptake of [3H]CQ (% PfCRTDd2 control), trans-stimulation, non-expressing oocytes (non-expressing oocytes [4]; [test solute]i = 45 mM (intracellular; 30 mM for some solutes due to solubility)): 2.2 ± 0.01 % PfCRTDd2 control
inhibition at 500 µM (non-expressing oocytes [5]; [17]): 2.9 ± 0.06%
inhibition at 1000 µM (non-expressing oocytes [5]; [17]): 3.6 ± 0.09%
inhibition at 2000 µM (non-expressing oocytes [5]; [17]): 3.2 ± 0.1%
inhibition at 500 µM (non-expressing oocytes [5]; [18]): 100 ± 4.3%
inhibition at 1000 µM (non-expressing oocytes [5]; [18]): 99 ± 3.7%
inhibition at 2000 µM (non-expressing oocytes [5]; [18]): 99 ± 5.2%
activity at 5000 µM (PfCRT^Dd2 [6]; pH 5.5, read-out: PfCRT-mediated [3H]CQ transport, trans-stimulation (% PfCRTDd2 control), [test solute]i = 5 mM (intracellular), PfCRTDd2 oocytes, normalised to oocyte type control): 97 ± 4.4%
activity at 5000 µM (PfCRT^Dd2 [6]; pH 5.5, read-out: Uptake of [3H]CQ (% PfCRTDd2 control), trans-stimulation, PfCRTDd2, total [3H]CQ transport, [test solute]i = 5 mM (intracellular), mean ± SEM, SEM): 99 ± 3.2%
activity at 5000 µM (PfCRT^Dd2 [6]; pH 5.5, read-out: Uptake of [3H]CQ (% PfCRTDd2 control), trans-stimulation, PfCRTDd2 oocytes, [test solute]i = 5 mM, total [3H]CQ transport, normalised to the oocyte type control): 99 ± 3.2%
activity at 45000 µM (PfCRT^Dd2 [6]; pH 5.5, read-out: Uptake of [3H]CQ (% PfCRTDd2 control), trans-stimulation, PfCRTDd2 oocytes, total [3H]CQ transport, normalised to the oocyte type control): 100 ± 2.9%
activity at 5000 µM (PfCRT^Dd2 [6]; pH 5.5, read-out: [3H]CQ transport (% PfCRTDd2 control), trans-stimulation, PfCRTDd2, trans-stimulation, [test solute]i = 5 mM (injected), PfCRT-mediated component (background subtracted), mean ± SEM, SEM): 97 ± 4.4%
activity at 45000 µM (PfCRT^Dd2 [6]; pH 5.5, read-out: [3H]CQ transport (% PfCRTDd2 control), trans-stimulation, PfCRTDd2, trans-stimulation, PfCRT-mediated component (background subtracted), mean ± SEM, SEM): 98 ± 3.6%
activity at 5000 µM (PfCRT^Ecu1110 [7]; pH 5.5, read-out: PfCRT-mediated [3H]CQ transport, trans-stimulation (% PfCRTEcu1110 control), [test solute]i = 5 mM (intracellular), PfCRTEcu1110 oocytes, normalised to oocyte type control): 98 ± 3.1%
activity at 5000 µM (PfCRT^Ecu1110 [7]; pH 5.5, read-out: Uptake of [3H]CQ (% PfCRTEcu1110 control), trans-stimulation, PfCRTEcu1110 oocytes, [test solute]i = 5 mM, total [3H]CQ transport, normalised to the oocyte type control): 100 ± 2.5%
activity at 45000 µM (PfCRT^Ecu1110 [7]; pH 5.5, read-out: Uptake of [3H]CQ (% PfCRTEcu1110 control), trans-stimulation, PfCRTEcu1110 oocytes, [test solute]i = 45 mM (30 mM for some solutes due to solubility), total [3H]CQ transport, normalised to the oocyte type control): 98 ± 3.1%
activity at 5000 µM (PfCRT^Ecu1110 [7]; read-out: Uptake of [3H]CQ (% PfCRTDd2 control), trans-stimulation, PfCRTEcu1110, total [3H]CQ transport, [test solute]i = 5 mM (intracellular), mean ± SEM, SEM): 36 ± 1.7%
activity at 45000 µM (PfCRT^Ecu1110 [7]; read-out: Uptake of [3H]CQ (% PfCRTDd2 control), trans-stimulation, PfCRTEcu1110, total [3H]CQ transport, [test solute]i = 45 mM (intracellular; 30 mM for some solutes due to solubility), mean ± SEM, SEM): 35 ± 1.6%
activity at 5000 µM (PfCRT^3D7 [8]; PfCRT3D7 oocytes, [test solute]i = 5 mM, total [3H]CQ transport, normalised to the oocyte type control, read-out: Uptake of [3H]CQ (% PfCRT3D7 control), trans-stimulation): 100 ± 3.6%
[3H]CQ transport (% PfCRT3D7 control), trans-stimulation, PfCRT3D7 (PfCRT^3D7 [8]; SEM): 0.3 ± 0.01 % PfCRT3D7 control
activity at 5000 µM (PfCRT^3D7 [8]; [test solute]i = 5 mM (intracellular), PfCRT3D7 oocytes, normalised to oocyte type control, read-out: PfCRT-mediated [3H]CQ transport, trans-stimulation (% PfCRT3D7 control)): 98 ± 4.1%
activity at 45000 µM (PfCRT^3D7 [8]; SEM, read-out: Uptake of [3H]CQ (% PfCRTDd2 control), trans-stimulation, PfCRT3D7): 3.3 ± 0.06%
activity at 45000 µM (PfCRT^3D7 [8]; read-out: PfCRT-mediated [3H]CQ transport, trans-stimulation (% PfCRT3D7 control)): 97 ± 4.5%
activity at 45000 µM (PfCRT^3D7 [8]; read-out: Uptake of [3H]CQ (% PfCRT3D7 control), trans-stimulation): 99 ± 3.7%
activity at 5000 µM (PfCRT^3D7 [8]; total [3H]CQ transport, [test solute]i = 5 mM (intracellular), mean ± SEM, SEM, read-out: Uptake of [3H]CQ (% PfCRTDd2 control), trans-stimulation, PfCRT3D7): 3.3 ± 0.06%
activity at 5000 µM (PfNT1; PfNT1 oocytes, [test solute]i = 5 mM, normalised to the oocyte type control, read-out: Uptake of [3H]CQ (% PfNT1 control), trans-stimulation): 98 ± 2.6%
activity at 45000 µM (PfNT1; SEM, read-out: Uptake of [3H]CQ (% PfCRTDd2 control), trans-stimulation, PfNT1): 2.3 ± 0.06%
activity at 45000 µM (PfNT1; read-out: Uptake of [3H]CQ (% PfNT1 control), trans-stimulation): 98 ± 2.6%
activity at 5000 µM (PfNT1; [test solute]i = 5 mM (intracellular), mean ± SEM, SEM, read-out: Uptake of [3H]CQ (% PfCRTDd2 control), trans-stimulation, PfNT1): 3 ± 0.02%
inhibition at 500 µM (PfCRT^3D7 [9]; [19]): 98 ± 3.1%
inhibition at 1000 µM (PfCRT^3D7 [9]; [19]): 100 ± 3.6%
inhibition at 2000 µM (PfCRT^3D7 [9]; [19]): 98 ± 3.6%
inhibition at 500 µM (PfCRT^3D7 [9]; [20]): 3.1 ± 0.06%
inhibition at 1000 µM (PfCRT^3D7 [9]; [20]): 2.2 ± 0.03%
inhibition at 2000 µM (PfCRT^3D7 [9]; [20]): 2.6 ± 0.08%
Tested as potential co-substrate but not required for influx of VF-6 via PfCRT into the oocyte (PfCRT [10]): X
